The record followed here is ChEMBL document CHEMBL1129141, “Synthesis, characterization, and anti-HIV activity of some 2-p-X-phenyl-1,3-N,N-diphenyl-amidines” (Bioorg Med Chem Lett, 1996).

Where only a bound is given, the exact number is not on record here.

Data set [1] relates to Human immunodeficiency virus 1. The data set can be described thus: Compound was tested for the drug concentration which reduces viral antigen production by 50%. The data set is classed as functional, organism-based.
Data set [2] in a line: SI (selectivity index) is the ratio of TC50 to EC50. The data set is classed as functional.
The nature of data set [3]: Compound was tested for the drug concentration which reduces the viability of uninfected C8166 cells by 50%. As to conditions: human, read-out: TC50 (the source's name). The data set is classed as cell-based.

Consider `O=[N+]([O-])c1ccc(/C(=N/c2ccccc2)Nc2ccccc2)cc1`, for which, in data set [1], the EC50 (as a rule, the concentration that produces a half-maximal response) was found to be 20 µM. The SI in data set [2] amounted to 4. Also, in data set [3], the CC50 stood at 80 µM.

On to `Cc1cn([C@H]2C[C@H](N=[N+]=[N-])[C@@H](CO)O2)c(=O)[nH]c1=O` [ZIDOVUDINE], for which, in data set [1], the EC50 came to 0.016 µM. Besides, in data set [2], the SI is above 6. Besides, in data set [3], the CC50 is above 1000 µM.

On to `Brc1ccc(/C(=N/c2ccccc2)Nc2ccccc2)cc1`, for which a half-maximal effect in data set [1] (EC50) was put at 100 µM. For the same molecule, the SI in data set [2] was found to be 2. In data set [3], the CC50 was found to be 200 µM.

In data set [1], `COc1ccc(/C(=N/c2ccccc2)Nc2ccccc2)cc1` gave an EC50 above 80 µM. The SI in data set [2] is below 1. Also, in data set [3], the CC50 was found to be 80 µM.

As for `c1ccc(/N=C(\Nc2ccccc2)c2ccccc2)cc1`, the EC50 in data set [1] was above 400 µM. Further, in data set [2], the SI is below 1. For the same molecule, the CC50 in data set [3] was 400 µM.

Regarding `Cc1ccc(/C(=N/c2ccccc2)Nc2ccccc2)cc1`, the EC50 in data set [1] is above 500 µM. The SI in data set [2] is below 1. For the same molecule, the CC50 in data set [3] was above 500 µM.

In data set [1], `Clc1ccc(/C(=N/c2ccccc2)Nc2ccccc2)cc1` registered an EC50 of 8 µM. Also, the SI in data set [2] was 125. The CC50 in data set [3] is 1000 µM.
